For 15 compounds, IC50 and Hemolytic activity results are on record in patent EP2265631B1, “NOVEL ANTIMICROBIAL PEPTIDES AND THEIR APPLICATION” (Ustav Organicke Chemie a Biochemie Akademie Ved Ceske …, priority 2008, dated 2009).

Ends that are not written are not given here. Peptide text beside a SMILES is read from it.

As usually defined, the IC50 is the concentration at which inhibition is half-maximal.

Format in all cases: cell-based
The test system of one series is Bacilus subtilis. Description: Determination of antimicrobial activity (MIC, bacterial growth in LB broth). The note with it: minimum inhibitory concentration (MIC) per method, 37°C, 20 h, read-out: Antimicrobial activity IC50 [µM] B.s. Here is the method: (§1) Antimicrobial activity was determined as a quantitative minimum inhibitory concentration (MIC) by observing bacterial growth in the presence of different concentrations of tested peptides. Mid-exponential phase bacteria were added to the solutions of the tested antimicrobial peptide at different concentrations (0.5 to 100 µM) in LB broth in multi-well plates. The plates were incubated at 37°C for 20 h while being continuously shaken in a Bioscreen C instrument (Finland). The absorbance was measured at 540 nm every 15 min and each peptide was tested at least 3 times in duplicate. 1.2.10^3 - 7.5.10^3 CFU of bacteria was routinely used in the experiments. Tetracycline in a concentration range of 0.1 - 50 µM was tested as a standard.

A further series relates to Escherichia coli. Described as above. The note with it: minimum inhibitory concentration (MIC) per method, 37°C, 20 h, read-out: Antimicrobial activity IC50 [µM] E. c. As to the method:
as §1

The subject of the next series is Pseudomonnas aeruginosa. The description is as above. The note with it: minimum inhibitory concentration (MIC) per method, 37°C, 20 h, read-out: Antimicrobial activity IC50 [µM] P.a. As to the method: as §1
The next series concerns Staphylococcus aureus. Described as above. The note with it: minimum inhibitory concentration (MIC) per method, 37°C, 20 h, read-out: Antimicrobial activity IC50 [µM] S.a. As to the method:
as §1

The subject of another series is rat red blood cells. The experiment in a line: Determination of hemolytic activity. The note with it: rat red blood cells (5%), 1 h at 37°C, peptides 1-200 µM. Here is the method:
The peptides in the concentration (1-200 µM) were incubated with rat red blood cells (5%) for 1 h at 37°C in a physiological solution at a final volume of 0.2 ml. The samples were then centrifuged for 5 min at 250 g, and the absorbance of the supernatant was determined at 540 nm. Supernatants of red blood cells suspended in physiological solution and in 0.2% TRITON X100 in physiological solution served as controls for zero hemolysis (blank) and 100% hemolysis, respectively. Table 3. Antimicrobial and hemolytic activity of melectin (I) and its synthetic analogs of formulas II/1 to II/18

On to `CC[C@H](C)[C@H](NC(=O)[C@H](CO)NC(=O)[C@H](CC(C)C)NC(=O)[C@H](Cc1ccccc1)NC(=O)CN)C(=O)N[C@@H](CC(C)C)C(=O)N[C@@H](CCCCN)C(=O)N[C@@H](CCCCN)C(=O)N[C@H](C(=O)N[C@@H](CC(C)C)C(=O)N1CCC[C@@H]1C(=O)N[C@@H](CCCCN)C(=O)N[C@H](C(=O)N[C@@H](CCSC)C(=O)N[C@@H](C)C(=O)N[C@@H](Cc1c[nH]cn1)C(=O)N[C@@H](CCSC)C(=O)N[C@@H](CCCCN)C(N)=O)C(C)C)C(C)C` [II/15, H-Gly-Phe-Leu-Ser-Ile-Leu-Lys-Lys-Val-Leu-Pro-Lys-Val-Met-Ala-His-Met-Lys-NH2], for which the IC50 with Bacilus subtilis was 1.7 µM; with Escherichia coli, 4.2 µM; with Pseudomonnas aeruginosa, 100 µM; with Staphylococcus aureus, > 100 µM. The Hemolytic activity result in the series with rat red blood cells is listed as “»200 µM”.
For `CC[C@H](C)[C@H](NC(=O)[C@H](CO)NC(=O)[C@H](CC(C)C)NC(=O)[C@H](Cc1cccc2ccccc12)NC(=O)CN)C(=O)N[C@@H](CC(C)C)C(=O)N[C@@H](CCCCN)C(=O)N[C@@H](CCCCN)C(=O)N[C@H](C(=O)N[C@@H](CC(C)C)C(=O)N1CCC[C@H]1C(=O)N[C@@H](CCCCN)C(=O)N[C@H](C(=O)N[C@@H](CCSC)C(=O)N[C@@H](C)C(=O)N[C@@H](Cc1c[nH]cn1)C(=O)N[C@@H](CCSC)C(=O)N[C@@H](CCCCN)C(N)=O)C(C)C)C(C)C` [II/16, H-Gly-1Nal-Leu-Ser-Ile-Leu-Lys-Lys- V al-Leu-Pro-Lys- V al-Met-Ala-His-Met-Lys-NH2] (HELM PEPTIDE1{G.[O=C([C@H](Cc1cccc2ccccc12)N[*:1])[*:2]].L.S.I.L.K.K.V.L.P.K.V.M.A.H.M.K.[am]}$$$$V2.0), in that order: 0.4 µM, 0.4 µM, 17.3 µM, 2.5 µM and 25 µM.
In the case of `CCCC[C@H](NC(=O)[C@H](Cc1c[nH]cn1)NC(=O)[C@H](C)NC(=O)[C@H](CCCC)NC(=O)[C@@H](NC(=O)[C@H](CCCCN)NC(=O)[C@@H]1CCCN1C(=O)[C@H](CC(C)C)NC(=O)[C@@H](NC(=O)[C@H](CCCCN)NC(=O)[C@H](CCCCN)NC(=O)[C@H](CC(C)C)NC(=O)[C@@H](NC(=O)[C@H](CO)NC(=O)[C@H](CC(C)C)NC(=O)[C@H](Cc1ccccc1)NC(=O)CN)[C@@H](C)CC)C(C)C)C(C)C)C(=O)N[C@@H](CCCCN)C(N)=O` [II/18, H-Gly-Phe-Leu-Ser-Ile-Leu-Lys-Lys-Val-Leu-Pro-Lys-Val-Nle-Ala-His-Nle-Lys-NH2] (HELM PEPTIDE1{G.F.L.S.I.L.K.K.V.L.P.K.V.[Nle].A.H.[Nle].K.[am]}$$$$V2.0), the IC50 in the series with Bacilus subtilis amounted to 0.2 µM; with Escherichia coli, 0.75 µM; in the series with Pseudomonnas aeruginosa, 17.3 µM; with Staphylococcus aureus it was 2.5 µM.
`CCCC[C@H](NC(=O)[C@H](Cc1cnc[nH]1)NC(=O)[C@H](C)NC(=O)[C@H](CCCC)NC(=O)[C@@H](NC(=O)[C@H](CCCCN)NC(=O)[C@@H]1CCCN1C(=O)[C@H](CC(C)C)NC(=O)[C@@H](NC(=O)[C@H](CCCCN)NC(=O)[C@H](CCCCN)NC(=O)[C@H](CC(C)C)NC(=O)[C@@H](NC(=O)[C@H](CO)NC(=O)[C@H](CC(C)C)NC(=O)[C@H](Cc1ccccc1)NC(=O)CN)[C@@H](C)CC)C(C)C)C(C)C)C(=O)N[C@@H](CCCCN)C(N)=O` [II/18, H-Gly-Phe-Leu-Ser-Ile-Leu-Lys-Lys-Val-Leu-Pro-Lys-Val-Nle-Ala-His-Nle-Lys-NH2] (HELM PEPTIDE1{G.F.L.S.I.L.K.K.V.L.P.K.V.[Nle].A.H.[Nle].K.[am]}$$$$V2.0) returned a Hemolytic activity with rat red blood cells of 50 µM.
As to “GFLSILKKVLGKVMAHMK-NH2 [II/3, H-Gly-Phe-Leu-Ser-lle-Leu-Lys-Lys-Val-Leu-Gly-Lys-Val-Met-Ala-His-Met-Lys-NH2]”, the IC50 was determined as 1.3 µM in the series with Bacilus subtilis, 1.8 µM with Escherichia coli, 14.4 µM with Pseudomonnas aeruginosa and 4.3 µM with Staphylococcus aureus. Further, the Hemolytic activity in the series with rat red blood cells was 41.4 µM.
For “GFLSILKKVLKVMAHMK-NH2 [II/8, H-Gly-Phe-Leu-Ser-Ile-Leu-Lys-Lys-Val-Leu-... -Lys-Val-Met-Ala-His-Met-Lys-NH2]”, in that order: 0.9 µM, 1.8 µM, 27.5 µM, 5 µM and 22.9 µM.
The matching figures for “H-FLSILKKVLPKVMAHMK-NH2 [II/9, H-Phe-Leu-Ser-Ile-Leu-Lys-Lys-Val-Leu-Pro-Lys-Val-Met-Ala-His-Met-Lys-NH2]”: 1.2 µM, 9.08 µM, 62.1 µM, 38.8 µM and >200 µM.
“H-GFLSILKKVGPKVMAHMK-NH2 [II/14, H-Gly-Phe-Leu-Ser-Ile-Leu-Lys-Lys-Val-Gly-Pro-Lys-Val-Met-Ala-His-Met-Lys-NH2]”: the IC50 was 1.4 µM in the series with Bacilus subtilis, 22.5 µM in the series with Escherichia coli, 80 µM in the series with Pseudomonnas aeruginosa and 80 µM in the series with Staphylococcus aureus. For the same compound, in the series with rat red blood cells, the Hemolytic activity entry is reported as “»200 µM”.
Regarding “H-GFLSILKKVL-NH2 [II/13, H-Gly-Phe-Leu-Ser-Ile-Leu-Lys-Lys-Val-Leu-NH2]”, the IC50 with Bacilus subtilis was found to be 2.9 µM; with Escherichia coli, 9.1 µM; in the series with Pseudomonnas aeruginosa, 58.7 µM; with Staphylococcus aureus, 10.9 µM. Moreover, in the series on rat red blood cells, the Hemolytic activity was >100 µM.
For “H-GFLSILKKVLAKVMAHMK-NH2 [II/2, H-Gly-Phe-Leu-Ser-Ile-Leu-Lys-Lys-Val-Leu-Ala-Lys-Val-Met-Ala-His-Met-Lys-NH2]”, in that order: 1.3 µM, 1.6 µM, 18.3 µM, 4.7 µM and 29.7 µM.
The matching figures for “H-GFLSILKKVLKKVMAHMK-NH2 [II/1, H-Gly-Phe-Leu-Ser-Ile-Leu-Lys-Lys-Val-Leu-Lys-Lys-Val-Met-Ala-His-Met-Lys-NH2]”: 1.4 µM, 1.8 µM, 25.3 µM, 13.3 µM and 27.3 µM.
For “H-GFLSILKKVLP-NH2 [II/12, H-Gly-Phe-Leu-Ser-Ile-Leu-Lys-Lys-Val-Leu-Pro-NH2]”, in that order: 13 µM, 78 µM, > 100 µM, > 100 µM and “»200 µM”.
On to “H-GFLSILKKVLPKVLAHLK-NH2 [II/5, H-Gly-Phe-Leu-Ser-Ile-Leu-Lys-Lys-Val-Leu-Pro-Lys-Val-Leu-Ala-His-Leu-Lys-NH2]”, for which the IC50 was 0.8 µM in the series on Bacilus subtilis, 1.2 µM in the series on Escherichia coli, 20 µM with Pseudomonnas aeruginosa and 5 µM with Staphylococcus aureus. The Hemolytic activity with rat red blood cells is reported as 43.7 µM.
With “H-GFLSILKKVLPKVMAKMK-NH2 [II/4, H-Gly-Phe-Leu-Ser-Ile-Leu-Lys-Lys-Val-Leu-Pro-Lys-Val-Met-Ala-Lys-Met-Lys-NH2]”, the IC50 with Bacilus subtilis amounted to 0.7 µM; in the series on Escherichia coli, 2.1 µM; in the series with Pseudomonnas aeruginosa it was 33.6 µM; with Staphylococcus aureus it was 16.8 µM. Further, the Hemolytic activity in the series on rat red blood cells is given as >100 µM.
“H-GLSILKKVLKKVMAHMK-NH2 [II/17, H-Gly-...-Leu-Ser-Ile-Leu-Lys-Lys-Val-Leu-Lys-Lys-Val-Met-Ala-His-Met-Lys-NH2]”: the Hemolytic activity entry with rat red blood cells is given as “»200 µM”.
